pIC50: −log10 of the molar value.
Columns and labels:
Assay type in all cases: biochemical
LATS1 = biological target: T1, LATS1 (Homo sapiens, UniProt O95835); assay: RBC HotSpot kinase assay (33P-ATP, P81 filter-binding), LATS1; details: Table 28, biochemical kinase assay; read-out: LATS1 IC50
T1 sequence (O95835 1-1130): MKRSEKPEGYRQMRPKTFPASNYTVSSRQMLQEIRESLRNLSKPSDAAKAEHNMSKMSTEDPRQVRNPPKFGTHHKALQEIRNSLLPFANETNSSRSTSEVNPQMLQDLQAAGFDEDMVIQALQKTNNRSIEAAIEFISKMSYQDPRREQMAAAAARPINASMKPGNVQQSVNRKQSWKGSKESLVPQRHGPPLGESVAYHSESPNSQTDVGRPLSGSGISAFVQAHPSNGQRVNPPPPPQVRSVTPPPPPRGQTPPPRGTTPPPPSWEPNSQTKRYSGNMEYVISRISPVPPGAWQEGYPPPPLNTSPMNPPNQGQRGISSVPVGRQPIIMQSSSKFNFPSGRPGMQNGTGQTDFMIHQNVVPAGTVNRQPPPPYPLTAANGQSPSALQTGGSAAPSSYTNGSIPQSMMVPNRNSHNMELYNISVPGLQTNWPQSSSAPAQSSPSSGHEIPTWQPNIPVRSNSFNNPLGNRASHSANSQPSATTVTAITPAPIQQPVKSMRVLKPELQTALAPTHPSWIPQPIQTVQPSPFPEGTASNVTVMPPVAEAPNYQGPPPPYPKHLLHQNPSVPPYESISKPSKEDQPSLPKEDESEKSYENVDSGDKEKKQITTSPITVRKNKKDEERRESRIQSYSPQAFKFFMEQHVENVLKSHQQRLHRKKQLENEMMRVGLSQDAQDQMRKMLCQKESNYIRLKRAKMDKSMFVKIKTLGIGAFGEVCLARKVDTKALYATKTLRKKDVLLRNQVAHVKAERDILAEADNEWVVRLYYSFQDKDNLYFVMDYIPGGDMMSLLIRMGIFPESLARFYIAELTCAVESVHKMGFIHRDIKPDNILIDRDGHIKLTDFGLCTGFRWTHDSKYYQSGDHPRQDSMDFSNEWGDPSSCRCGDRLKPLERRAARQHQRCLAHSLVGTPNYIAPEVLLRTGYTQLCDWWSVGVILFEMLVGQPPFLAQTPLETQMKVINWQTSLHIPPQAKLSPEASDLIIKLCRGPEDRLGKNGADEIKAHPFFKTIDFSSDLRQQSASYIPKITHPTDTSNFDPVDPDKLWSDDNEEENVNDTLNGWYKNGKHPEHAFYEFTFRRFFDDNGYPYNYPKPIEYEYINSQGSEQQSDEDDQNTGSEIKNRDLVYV
Method in brief: (§1)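 Radiometric 33P-ATP kinase reaction in 20 mM Hepes pH 7.5, 10 mM MgCl2, 1 mM EGTA, 0.01% Brij35, 0.02 mg/ml BSA, 0.1 mM Na3VO4, 2 mM DTT, 1% DMSO. Compound preincubated with kinase and substrate 20 min, then 2 h at room temperature; P81 filter-binding read-out. IC50 (nM) from 10-point singlet curves.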

LATS2 = biological target: T2, LATS2 (Homo sapiens, UniProt Q9NRM7); assay: RBC HotSpot kinase assay (33P-ATP, P81 filter-binding), LATS2; details: Table 28, biochemical kinase assay; read-out: LATS2 IC50
T2 sequence (Q9NRM7 1-1088): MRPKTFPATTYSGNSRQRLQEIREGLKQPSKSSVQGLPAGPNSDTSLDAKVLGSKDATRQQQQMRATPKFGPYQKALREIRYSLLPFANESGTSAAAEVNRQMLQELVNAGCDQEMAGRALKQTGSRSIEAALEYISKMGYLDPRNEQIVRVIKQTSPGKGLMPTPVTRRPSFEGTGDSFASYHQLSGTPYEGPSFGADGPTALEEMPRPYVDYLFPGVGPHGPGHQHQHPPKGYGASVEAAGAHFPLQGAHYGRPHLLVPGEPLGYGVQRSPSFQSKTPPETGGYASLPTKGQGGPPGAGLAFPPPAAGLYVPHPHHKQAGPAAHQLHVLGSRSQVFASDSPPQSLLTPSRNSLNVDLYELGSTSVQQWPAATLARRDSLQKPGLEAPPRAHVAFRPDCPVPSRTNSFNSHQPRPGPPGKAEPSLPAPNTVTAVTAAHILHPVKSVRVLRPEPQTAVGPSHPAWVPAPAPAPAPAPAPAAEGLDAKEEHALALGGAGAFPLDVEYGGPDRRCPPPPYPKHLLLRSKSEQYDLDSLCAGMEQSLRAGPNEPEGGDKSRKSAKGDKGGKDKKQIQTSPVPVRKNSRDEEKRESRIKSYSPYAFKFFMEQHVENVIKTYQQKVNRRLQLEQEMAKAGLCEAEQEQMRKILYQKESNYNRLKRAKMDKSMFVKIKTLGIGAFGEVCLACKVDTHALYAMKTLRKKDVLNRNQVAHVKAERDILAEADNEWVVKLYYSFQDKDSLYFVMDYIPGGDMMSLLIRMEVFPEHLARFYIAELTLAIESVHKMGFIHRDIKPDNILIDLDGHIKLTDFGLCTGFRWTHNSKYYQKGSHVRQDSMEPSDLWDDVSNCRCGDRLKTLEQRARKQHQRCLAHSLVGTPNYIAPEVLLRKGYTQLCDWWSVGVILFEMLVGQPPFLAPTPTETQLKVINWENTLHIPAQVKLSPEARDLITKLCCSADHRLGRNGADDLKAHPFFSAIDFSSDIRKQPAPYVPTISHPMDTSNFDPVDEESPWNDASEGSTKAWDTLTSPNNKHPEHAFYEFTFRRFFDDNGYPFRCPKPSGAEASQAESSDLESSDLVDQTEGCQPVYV
Method in brief: as §1

AKT = AKT (Homo sapiens, UniProt P31749); assay: RBC HotSpot kinase assay (33P-ATP, P81 filter-binding), AKT; details: Table 28, biochemical kinase assay; read-out: AKT IC50
Method in brief: as §1

Chain of AKT (P31749 whole entry): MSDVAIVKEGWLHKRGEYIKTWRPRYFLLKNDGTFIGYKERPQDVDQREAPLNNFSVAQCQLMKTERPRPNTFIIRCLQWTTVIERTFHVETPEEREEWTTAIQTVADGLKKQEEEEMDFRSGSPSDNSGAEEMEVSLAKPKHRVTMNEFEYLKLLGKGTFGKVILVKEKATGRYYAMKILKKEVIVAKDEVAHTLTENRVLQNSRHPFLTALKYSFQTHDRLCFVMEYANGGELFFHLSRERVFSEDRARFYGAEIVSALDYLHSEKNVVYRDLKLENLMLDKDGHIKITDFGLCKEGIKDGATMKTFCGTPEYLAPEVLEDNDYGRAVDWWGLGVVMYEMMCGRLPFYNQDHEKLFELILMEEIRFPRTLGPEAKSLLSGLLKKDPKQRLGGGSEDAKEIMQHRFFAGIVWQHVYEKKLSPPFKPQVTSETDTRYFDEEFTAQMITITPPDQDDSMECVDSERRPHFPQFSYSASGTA

Structure (SMILES)	pIC50 (LATS1)	pIC50 (LATS2)	pIC50 (AKT)
CCC(CC)Nc1cc(-c2ccnc3[nH]ccc23)ccc1CN [Compound 235, 2-(aminomethyl)-N-(pentan-3-yl)-5-(1H-pyrrolo[2,3-b]pyridin-4-yl)aniline]	6.39	6.43	6.10
CCN(CC)c1cc(-c2ccnc3[nH]ccc23)ccc1CNC(C)=O [Compound 236, N-(2-(diethylamino)-4-(1H-pyrrolo[2,3-b]pyridin-4-yl)benzyl)acetamide]	6.11	6.05	5.44
CCN(CC)c1cc(-c2ccnc3[nH]ccc23)ccc1CN [Compound 237, 2-(aminomethyl)-N,N-diethyl-5-(1H-pyrrolo[2,3-b]pyridin-4-yl)aniline]	7.92	7.64	7.00
C=C(C)c1cc(-c2ccnc3[nH]ccc23)ccc1CN [Compound 240, (2-(prop-1-en-2-yl)-4-(1H-pyrrolo[2,3-b]pyridin-4-yl)phenyl) methanamine]	8.37	7.47	6.75
CC(C)(O)C#Cc1cc(-c2ccnc3[nH]ccc23)ccc1CN [Compound 244, 4-(2-(aminomethyl)-5-(1H-pyrrolo[2,3-b]pyridin-4-yl)phenyl)-2-methylbut-3-yn-2-ol]	7.70	7.55	5.90
NCc1ccc(-c2ccnc3[nH]ccc23)cc1-c1ccccc1 [Compound 246, (5-(1H-pyrrolo[2,3-b]pyridin-4-yl)-[1,1′-biphenyl]-2-yl)methanamine]	7.82	7.70	6.42
NCc1ccc(-c2ccnc3[nH]cc(Cl)c23)cc1Cl [Compound 249, (2-chloro-4-(3-chloro-1H-pyrrolo[2,3-b]pyridin-4-yl)phenyl) methanamine]	8.08	8.10	6.66
Cc1cc(-c2ccnc3[nH]ccc23)cnc1CN [Compound 252, (3-methyl-5-(1H-pyrrolo[2,3-b]pyridin-4-yl)pyridin-2-yl)methanamine]	8.09	7.92	5.50
Cc1cc(-c2ccc(CN)cc2)c2cc[nH]c2n1 [Compound 256, (4-(6-methyl-1H-pyrrolo[2,3-b]pyridin-4-yl)phenyl) methanamine]	5.05	5.37	< 5.00
O=C1NCc2cc(-c3ccnc4[nH]ccc34)ccc21 [Compound 258, 5-(1H-pyrrolo[2,3-b]pyridin-4-yl)isoindolin-1-one]	6.64	7.19	< 5.00
O=C1NCc2ccc(-c3ccnc4[nH]ccc34)cc21 [Compound 259, 6-(1H-pyrrolo[2,3-b]pyridin-4-yl)isoindolin-1-one]	6.96	6.60	< 5.00
O=C1NCCc2cc(-c3ccnc4[nH]ccc34)ccc21 [Compound 260, 6-(1H-pyrrolo[2,3-b]pyridin-4-yl)-3,4-dihydroisoquinol in-1(2H)-one]	7.06	7.28	5.18
NCc1ccc(-c2cc(Cl)nc3[nH]ccc23)cc1 [Compound 262, (4-(6-chloro-1H-pyrrolo[2,3-b]pyridin-4-yl)phenyl) methanamine]	< 5.00	5.35	< 5.00
NCc1ccc(-c2ccnc3[nH]ccc23)c(F)c1 [Compound 263, (3-fluoro-4-(1H-pyrrolo[2,3-b]pyridin-4-yl)phenyl) methanamine]	7.47	7.14	5.92
NC(=O)c1ccc(-c2ccnc3[nH]ccc23)cc1 [Compound 264, 4-(1H-pyrrolo[2,3-b]pyridin-4-yl)benzamide]	6.46	6.68	< 5.00

Continued, values first:

pIC50 (LATS1)	pIC50 (LATS2)	pIC50 (AKT)	Structure (SMILES)
8.19	7.62	7.16	NCc1ccc(-c2ccnc3[nH]cc(Cl)c23)cc1-c1ccccc1 [Compound 234, (5-(3-chloro-1H-pyrrolo[2,3-b]pyridin-4-yl)-[1,1′-biphenyl]-2-yl)methanamine]
7.17	7.59	5.88	COc1ccc(-c2c[nH]c3nccc(-c4ccc(CN)cc4)c23)cc1 [Compound 239, (4-(3-(4-methoxyphenyl)-1H-pyrrolo[2,3-b]pyridin-4-yl)phenyl) methanamine]
7.72	8.22	6.09	C=C(C)c1c[nH]c2nccc(-c3ccc(CN)cc3)c12 [Compound 241, (4-(3-(prop-1-en-2-yl)-1H-pyrrolo[2,3-b]pyridin-4-yl)phenyl) methanamine]
7.96	8.00	5.88	COc1ccccc1-c1c[nH]c2nccc(-c3ccc(CN)cc3)c12 [Compound 242, (4-(3-(2-methoxyphenyl)-1H-pyrrolo[2,3-b]pyridin-4-yl)phenyl) methanamine]
7.14	7.62	5.63	NCc1ccc(-c2ccnc3[nH]cc(-c4ccc(F)cc4)c23)cc1 [Compound 243, (4-(3-(4-fluorophenyl)-1H-pyrrolo[2,3-b]pyridin-4-yl)phenyl) methanamine]
7.68	7.96	5.85	NCc1ccc(-c2ccnc3[nH]cc(-c4cccc(F)c4)c23)cc1 [Compound 247, (4-(3-(3-fluorophenyl)-1H-pyrrolo[2,3-b]pyridin-4-yl)phenyl) methanamine]
7.30	8.00	5.55	NCc1ccc(-c2ccnc3[nH]cc(-c4ccccc4F)c23)cc1 [Compound 248, (4-(3-(2-fluorophenyl)-1H-pyrrolo[2,3-b]pyridin-4-yl)phenyl) methanamine]
6.05	6.41	< 5.00	Cc1cc2c(-c3ccc(CN)cc3)ccnc2[nH]1 [Compound 251, (4-(2-methyl-1H-pyrrolo[2,3-b]pyridin-4-yl)phenyl) methanamine]
7.89	7.92	6.20	Cc1c[nH]c2nccc(-c3ccc(CN)cc3)c12 [Compound 257, (4-(3-methyl-1H-pyrrolo[2,3-b]pyridin-4-yl)phenyl) methanamine]
7.47	8.00	5.05	NCc1ccc(-c2cc(-c3ccncc3)nc3[nH]ccc23)cc1 [Compound 261, (4-(6-(pyridin-4-yl)-1H-pyrrolo[2,3-b]pyridin-4-yl)phenyl) methanamine]

Reference: patent publication US20250361230A1, “LATS Inhibitors and Uses Thereof” (The USA, as Represented by the Secretary, Dept. of Heath …, priority 2022, published 2025)
